What was measured:
Test in all cases: relative viability (nuclei count vs DMSO), 5 days (fraction); higher = more cells survive
QS11 + Vorinostat = compound: C1CC2=C(C1)C=C(C=C2)OC3=NC(=C4C(=N3)N(C=N4)CC5=CC=C(C=C5)C6=CC=CC=C6)N[C@@H](CC7=CC=CC=C7)CO [QS11] + O=C(CCCCCCC(=O)Nc1ccccc1)NO [Vorinostat] (partner 1 µM)
Outline: (§1)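 Lung cancer cell lines in 1536-well plates were dosed by pin tool the day after seeding, either with one drug alone or with a fixed anchor-drug dose plus five library-drug doses (not always all listed) in √10 steps. After 5 days, cells were fixed and their nuclei stained in one step (final 0.05% Triton X-100, 1% formaldehyde, 1 ug/ml Hoechst), then counted on 4× images. Relative viability is the nuclei count in treated wells divided by that in vehicle wells. Values are medians of duplicate plates.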

[1] = compound: C[As](C)SC[C@H](NC(=O)CC[C@H](N)C(=O)O)C(=O)NCC(=O)O [Darinaparsin] + Cc1cc(Nc2cc(N3CCN(C)CC3)nc(Sc3ccc(NC(=O)C4CC4)cc3)n2)n[nH]1 [Tozasertib] (partner 0.1 µM)
Outline: as §1

Darinaparsin + Olaparib = compound: C[As](C)SC[C@H](NC(=O)CC[C@H](N)C(=O)O)C(=O)NCC(=O)O [Darinaparsin] + O=C(c1cc(Cc2n[nH]c(=O)c3ccccc23)ccc1F)N1CCN(C(=O)C2CC2)CC1 [Olaparib] (partner 8 µM)
Outline: as §1

QS11 + Pemetrexed = compound: C1CC2=C(C1)C=C(C=C2)OC3=NC(=C4C(=N3)N(C=N4)CC5=CC=C(C=C5)C6=CC=CC=C6)N[C@@H](CC7=CC=CC=C7)CO [QS11] + Nc1nc2[nH]cc(CCc3ccc(C(=O)N[C@@H](CCC(=O)O)C(=O)O)cc3)c2c(=O)[nH]1 [Pemetrexed] (partner 0.2 µM)
Outline: as §1

Cell Line	relative viability (QS11 + Vorinostat; first compound 0.08 µM)	relative viability (QS11 + Vorinostat; first compound 0.253 µM)	relative viability (QS11 + Vorinostat; first compound 0.8 µM)	relative viability (QS11 + Vorinostat; first compound 2.53 µM)	relative viability (QS11 + Vorinostat; first compound 8 µM)	relative viability ([1]; first compound 0.08 µM)	relative viability ([1]; first compound 0.8 µM)	relative viability ([1]; first compound 2.53 µM)	relative viability ([1]; first compound 8 µM)	relative viability (Darinaparsin + Olaparib; first compound 0.08 µM)	relative viability (Darinaparsin + Olaparib; first compound 0.8 µM)	relative viability (Darinaparsin + Olaparib; first compound 2.53 µM)	relative viability (Darinaparsin + Olaparib; first compound 8 µM)	relative viability (QS11 + Pemetrexed; first compound 0.08 µM)	relative viability (QS11 + Pemetrexed; first compound 0.253 µM)	relative viability (QS11 + Pemetrexed; first compound 0.8 µM)	relative viability (QS11 + Pemetrexed; first compound 2.53 µM)	relative viability (QS11 + Pemetrexed; first compound 8 µM)
NCI-H2170	0.819	0.85	0.664	0.796	1.07	0.667	0.793	0.617	1.03	0.722	0.662	0.614	0.543	0.271	0.288	0.243	0.274	0.287
COR-L23	0.397	0.334	0.469	0.301	0.282	0.208	0.225	0.24	0.196	0.331	0.323	0.316	0.358	0.196	0.179	0.206	0.198	0.199
PC-3 [JPC-3]	–	0.722	0.709	0.72	0.697	1.08	0.996	0.739	1.1	1.42	1.15	1.16	1.26	–	0.951	1.08	0.935	1.17
NCI-H520	0.758	0.758	0.639	0.804	0.88	0.468	0.369	0.348	0.409	0.378	0.321	0.354	0.313	0.791	0.871	0.863	0.783	0.488
SW 900	0.295	0.378	0.452	0.457	0.348	0.677	0.538	0.658	0.555	0.837	–	0.85	0.773	0.384	0.456	0.465	0.503	0.514
HCC-827	0.749	0.927	0.672	0.944	0.899	0.435	0.453	0.422	0.491	0.784	0.638	0.65	0.759	0.262	0.274	0.258	0.257	0.35
NCI-H1666	1.04	1.09	0.924	0.713	0.73	0.623	0.612	0.745	0.579	0.734	0.746	0.834	0.72	0.834	0.937	0.824	0.739	0.651
NCI-H322M	0.858	0.997	1.05	1.16	1.41	0.564	0.464	0.423	0.492	0.763	0.763	0.713	0.726	0.556	0.59	0.66	0.822	0.735
NCI-H838	0.735	0.642	0.666	0.774	0.755	0.275	0.24	0.256	0.304	1.07	0.778	0.734	0.941	0.245	0.237	0.236	0.237	0.24
NCI-H2228	0.62	0.535	0.61	1.17	0.741	0.217	0.217	0.286	0.235	0.746	0.74	0.693	0.944	0.342	0.337	0.324	0.374	0.372
NCI-H596	0.52	0.51	0.501	0.623	0.593	1.13	0.958	0.872	0.979	0.634	0.675	0.667	0.774	0.456	0.468	0.507	0.528	0.476
NCI-H647	0.623	0.801	0.62	0.387	0.356	0.0828	0.282	0.232	0.385	0.681	0.601	0.382	0.604	0.2	0.146	0.155	0.159	0.202
NCI-H441	0.855	0.857	0.658	0.53	0.717	0.839	0.673	0.72	0.539	0.647	0.538	0.734	0.502	0.252	0.275	0.233	0.277	0.282

From the supplement of paper PMC10307832
